Experimental data from patent publication US12227482B2, “Compounds and compositions for the treatment of cancer” (The Regents of the University of California, priority 2016, dated 2025).

Assays:
Format in all cases: cell-based
Conditions in all cases: 72 hours treatment, cell survival by CellTiter-Glo, 2% fetal bovine serum
A549 cells = assay: Cell viability (CellTiter-Glo ATP content) in A549 cells
Description: (§1) Logarithmically growing A549, LOX and MelJuSo cells (ATCC) were plated in antibiotic-free RPMI medium (Coming) supplemented with 2% fetal bovine serum (Gemini Bio-products) at a density of 5,000 cells per well in clear-bottom 96-well plates. The next day cells were treated (triplicates) with increasing doses of a compound of the present disclosure (dissolved in DMSO) and DMSO vehicle controls (final DMSO concentration of 0.5%) for 72 hours and subsequently assessed for cell viability by measuring ATP content with CellTiter-Glo Luminescent Cell Viability Assay (Promega). Signal intensity was measured on a Glomax™ 96 Microplate Luminometer (Promega) and percent cell survival was calculated based on the reading of vehicle control cells set as 100%.

LOX cells = assay: Cell viability (CellTiter-Glo ATP content) in LOX cells
Description: as §1

MelJuSo cells = assay: Cell viability (CellTiter-Glo ATP content) in MelJuSo cells
Description: as §1

Structure (SMILES) | IC50 (A549 cells; Homo sapiens, A549, 72 h) | IC50 (LOX cells; LOX, 72 h) | IC50 (MelJuSo cells; Homo sapiens, MEL-JUSO) | IC50 (A549 cells) | IC50 (LOX cells) | IC50 (MelJuSo cells)
CCCCC1C(c2ccc(F)cc2)=NN(c2cccc(C)c2)C1(C)C(=O)NCCCC(C)(C)CO (stereo not drawn) [Compound 61, 4-butyl-3-(4-fluorophenyl)-N-(5-hydroxy-4,4-dimethylpentyl)-5-methyl-1-m-tolyl-4,5-dihydro-1H-pyrazole-5-carboxamide] | > 2 µM | 1 to 2 µM | 0.5 to 1 µM | – | – | –
CC1(C(=O)NCC(=O)NC2COC2)C(c2cccs2)C(c2ccc(F)cc2)=NN1c1ccc(F)cc1F (stereo not drawn) [Compound 108, 1-(2,4-difluorophenyl)-3-(4-fluorophenyl)-5-methyl-N-(2-(oxetan-3-ylamino)-2-oxoethyl)-4-(thiophen-2-yl)-4,5-dihydro-1H-pyrazole-5-carboxamide] | > 2 µM | > 2 µM | > 2 µM | – | – | –
CCCCC1C(c2ccc(F)cc2)=NN(c2ccccc2)C1(C)C(=O)N[C@H](C)c1ccccc1 (stereo partly drawn) [Compound 43, 4-butyl-3-(4-fluorophenyl)-5-methyl-1-phenyl-N-((R)-1-phenylethyl)-4,5-dihydro-1H-pyrazole-5-carboxamide] | > 2 µM | > 2 µM | > 2 µM | – | – | –
CCCCC1C(c2ccc(F)cc2)=NN(c2ccccc2)C1(C)C(=O)NCCCN(C)C (stereo not drawn) [Compound 49, 4-butyl-N-(3-(dimethylamino)propyl)-3-(4-fluorophenyl)-5-methyl-1-phenyl-4,5-dihydro-1H-pyrazole-5-carboxamide] | > 2 µM | > 2 µM | > 2 µM | – | – | –
CCCCC1C(c2ccc(F)cc2)=NN(c2cc(F)ccc2F)C1(C)C(=O)NCCCCC(C)(C)O (stereo not drawn) [Compound 9, 4-butyl-1-(2,5-difluorophenyl)-3-(4-fluorophenyl)-N-(5-hydroxy-5-methylhexyl)-5-methyl-4,5-dihydro-1H-pyrazole-5-carboxamide] | 1 to 2 µM | 0.5 to 1 µM | 0.5 to 1 µM | – | – | –
CCCCC1C(c2ccc(F)cc2)=NN(c2ccccc2)C1(C)C(=O)NCc1ccc(O)c(OC)c1 (stereo not drawn) [Compound 66, 4-butyl-3-(4-fluorophenyl)-N-(4-hydroxy-3-methoxybenzyl)-5-methyl-1-phenyl-4,5-dihydro-1H-pyrazole-5-carboxamide] | > 2 µM | > 2 µM | > 2 µM | – | – | –
COCCNC(=O)C1(C)C(c2ccc(C)s2)C(c2ccc(F)cc2)=NN1c1ccc(F)cc1F (stereo not drawn) [Compound 100, 1-(2,4-difluorophenyl)-3-(4-fluorophenyl)-N-(2-methoxyethyl)-5-methyl-4-(5-methylthiophen-2-yl)-4,5-dihydro-1H-pyrazole-5-carboxamide] | > 2 µM | 1 to 2 µM | 0.25 to 0.5 µM | – | – | –
CCCCC1C(c2ccc(F)cc2)=NN(c2ccc(F)c(Cl)c2)C1(C)C(=O)NCCCCC(C)(C)O (stereo not drawn) [Compound 11, 4-butyl-1-(3-chloro-4-fluorophenyl)-3-(4-fluorophenyl)-N-(5-hydroxy-5-methylhexyl)-5-methyl-4,5-dihydro-1H-pyrazole-5-carboxamide] | > 2 µM | > 2 µM | 1 to 2 µM | – | – | –
CC1(C(=O)NCC(=O)N2CCS(=O)(=O)CC2)C(c2cccs2)C(c2ccc(F)cc2)=NN1c1ccc(F)cc1F (stereo not drawn) [Compound 105, 1-(2,4-difluorophenyl)-3-(4-fluorophenyl)-5-methyl-N-(1,1-dioxo-1-thiomorpholine-2-oxoethyl)-4-(thiophen-2-yl)-4,5-dihydro-1H-pyrazole-5-carboxamide] | > 2 µM | > 2 µM | > 2 µM | – | – | –
COC(=O)CNC(=O)C1(C)C(c2ccc(Cl)o2)C(c2ccc(F)cc2F)=NN1c1ccc(F)cc1F (stereo not drawn) [Compound 134, methyl 2-(4-(5-chlorofuran-2-yl)-1,3-bis(2,4-difluorophenyl)-5-methyl-4,5-dihydro-1H-pyrazole-5-carboxamido)acetate] | – | – | – | < 0.25 µM | < 0.25 µM | < 0.25 µM
COC(=O)CNC(=O)C1(C)C(c2ccc(Cl)o2)C(c2ccc(F)cc2F)=NN1c1ccc(F)cc1F (stereo not drawn) [Compound 121, methyl 2-(4-(5-chlorofuran-2-yl)-1,3-bis(2,4-difluorophenyl)-5-methyl-4,5-dihydro-1H-pyrazole-5-carboxamido)acetate] | < 0.25 µM | < 0.25 µM | < 0.25 µM | – | – | –
CCCCC1C(c2ccc(F)cc2)=NN(c2ccccc2)C1(C)C(=O)NCCc1ccc(O)cc1 (stereo not drawn) [Compound 38, 4-butyl-3-(4-fluorophenyl)-N-(4-hydroxyphenethyl)-5-methyl-1-phenyl-4,5-dihydro-1H-pyrazole-5-carboxamide] | > 2 µM | > 2 µM | 0.5 to 1 µM | – | – | –
CCCCC1C(c2ccc(F)cc2)=NN(c2ccc(C)cc2)C1(C)C(=O)NCCOC (stereo not drawn) [Compound 59, 4-butyl-3-(4-fluorophenyl)-N-(2-methoxyethyl)-5-methyl-1-p-tolyl-4,5-dihydro-1H-pyrazole-5-carboxamide] | 0.25 to 0.5 µM | < 0.25 µM | < 0.25 µM | – | – | –
CCCCC1C(c2ccc(F)cc2)=NN(c2ccccc2)C1(C)C(=O)NCc1ccccc1OC (stereo not drawn) [Compound 44, 4-butyl-3-(4-fluorophenyl)-N-(2-methoxybenzyl)-5-methyl-1-phenyl-4,5-dihydro-1H-pyrazole-5-carboxamide] | > 2 µM | > 2 µM | > 2 µM | – | – | –
CCCCC1C(c2ccc(F)cc2)=NN(c2ccc(Cl)cc2C)C1(C)C(=O)NCCCOC (stereo not drawn) [Compound 30, 4-butyl-1-(4-chloro-2-methylphenyl)-3-(4-fluorophenyl)-N-(3-methoxypropyl)-5-methyl-4,5-dihydro-1H-pyrazole-5-carboxamide] | > 2 µM | > 2 µM | > 2 µM | – | – | –
CC1(C(=O)NCCCN2CCOCC2)C(c2cccs2)C(c2ccc(F)cc2)=NN1c1ccc(F)cc1F (stereo not drawn) [Compound 122, 1-(2,4-difluorophenyl)-3-(4-fluorophenyl)-5-methyl-N-(3-morpholinopropyl)-4-(thiophen-2-yl)-4,5-dihydro-1H-pyrazole-5-carboxamide] | > 2 µM | > 2 µM | > 2 µM | – | – | –
CCCCC1C(c2ccc(F)cc2)=NN(c2ccccc2)C1(C)C(=O)NCc1cccs1 (stereo not drawn) [Compound 67, 4-butyl-3-(4-fluorophenyl)-5-methyl-1-phenyl-N-(thiophen-2-ylmethyl)-4,5-dihydro-1H-pyrazole-5-carboxamide] | > 2 µM | > 2 µM | > 2 µM | – | – | –
CCCCC1C(c2ccc(F)cc2)=NN(c2ccccc2)C1(C)C(=O)NCCCCC(C)(C)O (stereo not drawn) [Compound 2, 4-butyl-3-(4-fluorophenyl)-N-(5-hydroxy-5-methylhexyl)-5-methyl-1-phenyl-4,5-dihydro-1H-pyrazole-5-carboxamide] | 1 to 2 µM | 1 to 2 µM | 0.5 to 1 µM | – | – | –
CC1(C(=O)NCC(=O)NCCO)C(c2cccs2)C(c2ccc(F)cc2)=NN1c1ccc(F)cc1F (stereo not drawn) [Compound 112, 1-(2,4-difluorophenyl)-3-(4-fluorophenyl)-N-(2-(2-hydroxyethylamino)-2-oxoethyl)-5-methyl-4-(thiophen-2-yl)-4,5-dihydro-1H-pyrazole-5-carboxamide] | > 2 µM | > 2 µM | > 2 µM | – | – | –
CC(C)(O)CNC(=O)CNC(=O)C1(C)C(c2cccs2)C(c2ccc(F)cc2)=NN1c1ccc(F)cc1F (stereo not drawn) [Compound 104, 1-(2,4-difluorophenyl)-3-(4-fluorophenyl)-N-(2-(2-hydroxy-2-methylpropylamino)-2-oxoethyl)-5-methyl-4-(thiophen-2-yl)-4,5-dihydro-1H-pyrazole-5-carboxamide] | > 2 µM | 1 to 2 µM | 0.5 to 1 µM | – | – | –
